Reference: patent US9827224B2, “Methods and compositions for ameliorating pancreatic cancer” (University of South Alabama, priority 2010, dated 2017)

Tests used:
[1] = human volunteers, intra-venous injection; cited from earlier work
[2] = test system: Akt; assay: Western blot of Akt activation (total and phospho-forms) in Panc1 and MiaPaCa cells; type: cell-based, Human
Protocol: (§1) Cells were processed for protein extraction and western blotting using standard procedures. Briefly, cells were washed twice with PBS and scraped into NP-40 lysis buffer containing protease and phosphotase inhibitors. Cell lysates were passed through a needle syringe to facilitate the disruption of the cell membranes and were centrifuged at 14,000 rpm for 20 min at 4° C., and supematants were collected. Proteins (10-50 μg) were resolved by electrophoresis on 10% SDS-PAGE, transferred onto polyvinylidene difluoride (PVDF) membrane and subjected to standard immunodetection procedure using specific antibodies: AKT, pAKT ERK1/2, pERK1/2, Bcl-2, Bcl-xL, FAk, pFAk, Survivin, β-catenin and BAD (1:1000), pBAD (1:500), Notch-1 (1:200) and β-actin (1:20000). All secondary antibodies were used at 1:2500 dilutions. Blots were processed with ECL Plus Western Blotting detection kit and the signal detected using an LAS-3000 image analyzer (Fuji Photo Film Co., Tokyo, Japan).

[3] = test system: ERK; assay: Western blot of ERK activation (total and phospho-forms) in Panc1 and MiaPaCa cells; type: cell-based, Human; details: for effect on CXCL12-induced activation of ERK pathway: pre-treatment 1 h (AMD3100, LY294002 20 μM, PD98059 25 μM), 15 min post-CXCL12, Panc1 and MiaPaCa
Protocol: as §1

[4] = test system: Panc1 and MiaPaCa cells; assay: Cell viability assay (Vybrant MTT cell proliferation assay), results stated for both cell lines together; type: cell-based, Human; details: for effect on CXCL12-induced chemo-resistance (gemcitabine): pre-treatment 1 h (AMD3100 5 μg/mL, LY294002 20 μM, PD98059 25 μM), then gemcitabine + CXCL12
Protocol: (§2) After 72 h of treatment, cell growth was determined by using Vybrant MIT cell proliferation assay. Growth was calculated as percent (%)=[{(A/B)−1}×100], where A and B are the absorbance of treatment and control cells, respectively. To examine the effect of CXCR4 targeting, cells were pre-incubated with small molecule CXCR4 antagonist, AMD3100 (5 μg/mL), for 1 h. To delineate the role of Akt and ERK pathways, cells were pretreated for 1 h with LY294002 (20 μM) and PD98059 (25 μM), respectively.

[5] = test system: MiaPaCa cells; assay: Cell viability assay (MTT), gemcitabine cytotoxicity; type: cell-based, Human; details: 5.0 μM gemcitabine, 72 h, serum-containing media, compared to untreated cells
Protocol: as §2

[6] = test system: Panc1 cells; assay: as above; type: cell-based, Human; details: 5.0 μM gemcitabine, 72 h, serum-containing media, compared to untreated cells
Protocol: as §2

[7] = test system: Panc1 and MiaPaCa cells; assay: DNA fragmentation assay; type: cell-based, Human; details: gemcitabine 5 and 10 μM + CXCL12 100 ng/mL, 48 h, compared to gemcitabine alone
Protocol: Cells were washed twice with phosphate buffer saline (PBS) and DNA was extracted using DNAzol reagent. 2 μg of isolated DNA was resolved on 1.0% agarose gel containing ethidium-bromide (EtBr) and observed under a LAS-3000 image analyzer (Fuji Photo Film Co.).

[8] = test system: Bcl-2, Bcl-xL, Notch-1 and survivin; assay: Western blot of survival protein expression in pancreatic cancer cells; type: cell-based, Human; details: CXCL12-treated pancreatic cancer cells
Protocol: as §1

[9] = test system: FAK; assay: Western blot of FAK activation in Panc1 and MiaPaCa cells; type: cell-based, Human; details: CXCL12 100 ng/mL, 5-30 min
Protocol: as §1

[10] = test system: NF-κB; assay: NF-κB transcriptional activity assay (luciferase reporter); type: cell-based, Human; details: 24 h
Protocol: To measure the LEF/TCF and NF-κB transcriptional activity, pancreatic cancer cells (1×10^5) were seeded in 12-well plates. After 24 h incubation, cells were transiently transfected with the luciferase promoter-reporter constructs (TOP flash, FOPflash or pGL4.32[luc2P/NF-kB-RE/Hygro]. TOPflash reporter plasmid contains three copies of the Tcf/Lef sites upstream of a thymidine kinase (TK) promoter and the Firefly luciferase gene, while in FOPflash, Tcf/Lef sites are mutated and therefore it serves as a control for measuring nonspecific activation of the reporter. Cells were also co-transfected with a reporter plasmid, containing Renilla reniformis luciferase gene downstream of the TK promoter, to control for the transfection efficiency. All transfections were performed using FuGene as a transfection reagent according to the manufacturers' recommendations. Cells were treated with CXCL12 (100 ng) 24 h post TOPflash/FOPflash or pGLA.32[luc2P/NF-kB-RE/Hygro] transfection, and after the next 24 h, total protein was isolated in passive lysis buffer. Luciferase activity was measured using the Dual Luciferase Assay System. All experiments were done in triplicate and relative luciferase activity reported as the fold induction after normalization for transfection efficiency.

[11] = test system: BAD; assay: Western blot of BAD phosphorylation in Panc1 and MiaPaCa cells; type: cell-based, Human; details: CXCL12-treated Panc1 and MiaPaCa
Protocol: as §1

[12] = test system: SHH; assay: CXCL12-induced sonic hedgehog (SHH) expression by Q-RT-PCR and Western blot; type: cell-based, Human; details: CXCL12, 0-48 hours, Panc1 and MiaPaCa
Protocol: Panc1 and MiaPaCa cells were treated with CXCL12 and expression of SHH was measured by Q-RT-PCR and Western blot analysis.
Q-RT-PCR: Pancreatic cancer cells (Panc1 and MiaPaCa) were treated with CXCL12 for different time point (0, 4, 8, 24, 48 hours) for Q-RT-PCR analysis. To confirm the induced expression of sonic hegedehog (SHH), reverse transcriptase based-PCR (RT-PCR) analysis was performed, using SHH-specific primers. Briefly, cDNA was synthesized from 5 μg total RNA using SuperScript™ II Reverse Transcriptase (Invitrogen) and oligo(dT) primer. Two micro liter of first strand cDNA (1:10 dilution) was amplified using the SHH specific and GAPDH specific primers control. Amplified products were resolved through a 1.5% agarose gel containing ethidium bromide and analyzed using an Alpha Imager gel documentation system (Alphalnnotech, San Leandro, Calif.).
Immunoblot analyses: NP-40 lysis buffer containing protease and phosphatase inhibitors (Roche Diagnostics. 50 μg protein was resolved by SDS-PAGE (8-12%). The primary antibodies were: anti-sonic hedgehog (SHH, 1:2000, rabbit monoclonal, Millipore. Secondary antibody (Santa Cruz Biotechnology) was horseradish peroxidase (HRP)-conjugated and was used a 1:2000 dilution. Bound immunocomplexes were detected using ECL Plus chemiluminescent detection reagent (GE Healthcare, Piscataway, N.J.).

[13] = test system: activated caspases; assay: Measurement of apoptosis in situ (CaspACE FITC-VAD-FMK); type: cell-based, Human; details: gemcitabine 5 μM + CXCL12 100 ng/mL, compared to gemcitabine alone
Protocol: Apoptosis was detected by staining the cells with CaspACE FITC-VAD-FMK solution in PBS for 2 h at 37° C. CaspACE™ FITC-VAD-FMK In Situ Marker is a fluorescent analog of the pan-caspase inhibitor Z-VAD-FMK (carbobenzoxy-valyl-alanylaspartyl-[O-methyl]-fluoromethylketone), which irreversibly binds to activated caspases and is a surrogate for caspase activity in situ. Following staining with CaspACE FITC-V AD-FMK, cells were fixed with 4% paraformaldehydede at room temperature and washed with PBS. The bound fluorescent marker was detected under a Nikon Eclipse TE2000-U fluorescent microscope (Nikon Instruments Inc, Melville, N.Y.).

[14] = CXCL12 100 ng/mL, 5-30 min, Panc1 and MiaPaCa

Q: For `c1cc(CN2CCCNCCNCCCNCC2)ccc1CN1CCCNCCNCCCNCC1` [AMD3100, Plerixafor, reference compound], which side effects [1] is on record?
A: minimal side effects

Q: What about the “effect on CXCL12-induced activation of Akt pathway” value ([2]; pre-treatment 1 h (AMD3100 5 g/mL, LY294002 20 μM, PD98059 25 μM), 15 min post-CXCL12, Panc1 and MiaPaCa) of the same compound?
A: inhibited

Q: And the “effect on CXCL12-induced activation of ERK pathway” value [3]?
A: inhibited

Q: What about the “effect on CXCL12-induced chemo-resistance (gemcitabine)” value [4] of the same compound?
A: abolished

Q: And the “effect on CXCL12-induced growth promotion” value ([4]; pre-treatment 1 h, AMD3100 5 μg/mL, then CXCL12)?
A: abolished

Q: With `COc1cccc(-c2cc(=O)c3ccccc3o2)c1N` [PD98059, reference compound] as the compound, how does the “effect on CXCL12-induced activation of ERK pathway” value [3] read?
A: specifically inhibited

Q: And the “effect on CXCL12-induced chemo-resistance (gemcitabine)” value [4]?
A: significant negative impact

Q: What does the source list for `Nc1ccn([C@@H]2O[C@H](CO)[C@@H](O)C2(F)F)c(=O)n1` [gemcitabine]?
A: gemcitabine cytotoxicity [5]: 50.7%; gemcitabine cytotoxicity [6]: 52.3%

Q: For “CXCL12: Recombinant human CXCL12, a ligand for CXCR4”, which DNA fragmentation [7] is on record?
A: reduced DNA fragmentation

Q: What about the “expression of Bcl-2, Bcl-xL, Notch-1 and survivin proteins” value [8] of the same compound?
A: significantly induced

Q: What about the “activation of FAK (phospho-form)” value [9] of the same compound?
A: significant activation

Q: What about the “activation of Akt (phospho-form)” value [2, 14] of the same compound?
A: significant activation

Q: What about the “activation of ERK (phospho-form)” value [3, 14] of the same compound?
A: significant activation

Q: What about the “induction of transcriptional activity of NF-κB responsive promoter” value ([10]; MiaPaCa, CXCL12-treated) of the same compound?
A: 2.26 fold

Q: What about the “induction of transcriptional activity of NF-κB responsive promoter” value ([10]; Panc1, CXCL12-treated) of the same compound?
A: 2.98 fold

Q: What about the resistance to gemcitabine-cytotoxicity ([4]; CXCL12 100 ng/mL, gemcitabine 0-10 μM, both cell lines, p<0.05) of the same compound?
A: induced significant resistance

Q: What about the induction of growth ([4]; CXCL12 100 ng/ml, absence of serum growth factors, range over MiaPaCa and Panc1) of the same compound?
A: 29-33%

Q: What about the increase of growth ([4]; CXCL12 100 ng/ml, presence of serum growth factors, range over MiaPaCa and Panc1) of the same compound?
A: 11-13%

Q: And the “level of phospho-BAD” value [11]?
A: increased level of phospho-BAD

Q: What about the “expression of SHH” value [12] of the same compound?
A: induced expression of SHH

Q: What about the activity of caspases [13] of the same compound?
A: enhanced activity of caspases
